In PubChem BioAssay (NCI):
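Grown in 96-well plates, cells were treated for 48 hours with each compound at five concentrations. Insufficient inhibition: endpoint recorded as highest concentration tested. TGI is the concentration that stops growth completely.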

What was measured:
Test in all cases: NCI tumour cell line growth inhibition, 48 h
MDA-MB-435 = system: MDA-MB-435
SNB-75 CNS = system: SNB-75 CNS
HS 578T breast = system: HS 578T breast
SK-OV-3 ovarian = system: SK-OV-3 ovarian
DU-145 prostate = system: DU-145 prostate
NCI-H226 lung = system: NCI-H226 lung
SF-539 CNS = system: SF-539 CNS
LOX IMVI melanoma = system: LOX IMVI melanoma
SF-268 CNS = system: SF-268 CNS
ACHN renal = system: ACHN renal
UO-31 renal = system: UO-31 renal

SMILES	TGI (MDA-MB-435) [µM]	TGI (SNB-75 CNS) [µM]	TGI (HS 578T breast) [µM]	TGI (SK-OV-3 ovarian) [µM]	TGI (DU-145 prostate) [µM]	TGI (NCI-H226 lung) [µM]	TGI (SF-539 CNS) [µM]	TGI (LOX IMVI melanoma) [µM]	TGI (SF-268 CNS) [µM]	TGI (ACHN renal) [µM]	TGI (UO-31 renal) [µM]
C[C@]12CCC(=O)O[C@H]1CCCCO2	> 100	> 100	> 100	> 100	> 100	> 100	> 100	> 100	> 100		
CCOC(=O)c1nc2ccc(C(F)(F)F)cc2nc1NCc1cc(OC)c(OC)c(OC)c1	> 100	90.6	> 100		> 100	> 100	> 100	> 100	> 100	> 100	99.5
C=CCCN1CCc2c([nH]c3ccccc23)C1C(=O)O (stereo not given)		> 100		> 100		> 100	> 100	> 100	> 100	> 100	> 100
Cc1cc(S(=O)(=O)N=C2N(Cc3ccccc3)CCN2Cc2ccccc2)c(S)cc1Cl	> 100	> 100	> 100	> 100	> 100	> 100	> 100	> 100	> 100		47.4
O=C(O)Cc1cccc2c(=O)c3ccccc3oc12	> 100		> 100	41.9	> 100	> 100	> 100	> 100	> 100	> 100	> 100
O=Cc1ccc2c(c1)CC1(Cc3ccccc3C1)C2	37.6		> 100	> 100		73.2	33.2	37.9		65.7	58.7
CC1=NNC(N)=N/C1=C\C(Sc1ccc(Cl)cc1)c1ccc([N+](=O)[O-])cc1 (stereo not given)	> 100		> 100	> 100	> 100	68.1		> 100	> 100	> 100	> 100
COc1cc(/C=C2/C[C@H]3[C@@H]4CC=C5C[C@@H](O)CC[C@]5(C)[C@H]4CC[C@]3(C)NC2=O)cc(OC)c1OC	> 100			> 92.3	23.4	> 58.5	> 100	> 100	23.4	58	29.8
NN/C(=N\S(=O)(=O)c1cc2ccccc2s1)Nc1ccc(Cl)cc1		38.7		> 100	32.3	36.5	29.8	38.6	37.9	54.4	32.1
CCOC(=O)N/N=C(/N)c1cccc([N+](=O)[O-])c1	> 100	> 100	> 100	> 100	> 100		> 100	> 100	> 100	> 100	> 100
Cc1ccc(N=Nc2c(O)ccc3cc(S(=O)(=O)O)cc(S(=O)(=O)O)c23)cc1	> 100	> 100	> 100	> 100	> 100	> 100	> 100		> 100	> 100	> 100
CC(=O)OCC12C(=O)C[C@@H](C)C3(CC(c4ccoc4)OC3=O)C1CCC(OC(C)=O)C21CO1 (stereo not given in full)	> 100	> 100	> 100		> 100	> 100	> 100	> 100	> 100	> 100	> 100
CCOC(=O)CNc1c(OCc2ccccc2)c(=O)c1=O	> 100	> 100	> 100	> 100	> 100	> 100			> 100	> 100	> 100
Cc1cccc(N=NC(=O)NNc2cccc(C)c2C)c1C	64.9	> 100			> 100	> 100		60.2	> 100	95.7	> 100
N#CC(NC12CC3CC(CC(C3)C1)C2)c1ccccc1C(F)(F)F (stereo not given)						> 100	> 100	> 100	> 100	> 100	> 100
Oc1ccc(-c2nc(-c3cccnc3)c(-c3ccc(Cl)cc3)[nH]2)cc1	25.5	19.9	56	26.8	29.4	33.3		24	29.6	27.6	22.9
CC1NC(=O)CC(c2ccccc2)N(N=O)C1c1ccccc1 (stereo not given)		> 65.2		62.6		> 100	48.4	> 100	> 100		> 100
COC1C=CC(O)C(CO)O1 (stereo not given)		> 100		> 100			> 100	> 100		> 100	> 100
COC(CNC(=O)C(C)NC(=O)CCc1ccccc1)OC (stereo not given)	> 100	> 100	> 100	> 100	> 100	> 100	> 100		> 100	> 100	> 100
COC1=C(OC)C(=O)C(Cc2c(C)nc3sc(C)cn23)=C(C)C1=O	33.6		67.1	38.9	48		32.4	39.4	35.7	30	31.6
O=Cc1ccc(OCc2cccc(COc3ccc(/C=N\Nc4ccc([N+](=O)[O-])cc4[N+](=O)[O-])cc3)n2)cc1	> 100		> 100		> 100	> 100		> 100	> 100	> 100	> 100
CC(C)(C)OC(=O)NC(Cc1ccc(OCc2ccccc2)cn1)C(=O)N1CCCCC1 (stereo not given)	49	70.3	> 100	> 100	> 100		> 100	71	> 100	> 100	71.4
O=C(NNC(=S)Nc1cccc(Cl)c1)c1cc(-c2ccccc2)nc2ccccc12	33.4	66.5	41.9	34.5	29.5	40.5	29.8		35.4	31.8	29.8
